Measurements from article PMC12362764, “Novel Cyano‐Artemisinin Dimer ZQJ29 Targets PARP1 to Induce Ferroptosis in Pancreatic Cancer Treatment” (Advanced Science, 2025).

How the values were obtained:
KP4 cells = assay: Cell cycle analysis (PI, flow cytometry), KP4; assay type: cell-based; details: KP4, 24 h
Procedure: PANC‐1 and KP4 cells were placed in 6 cm dishes and exposed to designated concentrations of ZQJ29 (1 µM) for 24 h before trypsinization. After centrifugation, the cells were secured and preserved in ice‐cold 70% ethanol and stored at 4 °C for 24 h. They were then thoroughly washed with PBS multiple times. Next, the fixed cells were incubated in PBS supplemented with RNase and PI solution for 30 min at 37 °C, protected from light exposure. Cell cycle progression was assessed using a flow cytometer. This experimental procedure was systematically conducted in three separate trials, with each trial done in triplicate. Cell cycle kits were obtained from Beyotime (Shanghai, China).

PANC-1 = assay: Label-free proteomics; assay type: cell-based; details: PANC-1, 5 µM ZQJ29 vs DMSO, 24 h
Procedure: PANC‐1 cells were inoculated into 6‐well plates at ≈2 × 10^5 cells per well and grown for 24 h. After this period, the cells were treated with 5 µM ZQJ29 and an equal volume of solvent (DMSO) for an additional 24 h. Following treatment, the cells were removed from the incubator, and the medium was aspirated and discarded. The cells were washed twice with pre‐cooled PBS, which was then discarded. Next, 30 µL of RIPA lysis buffer containing PMSF (Yeasen, Shanghai, China) was added, and the cells were scraped off quickly using a cell scraper. The cell suspension was collected in 1.5 mL EP tubes and placed on ice. Cells were homogenized using ultrasound (3s × 15 times at 4s intervals), and the mixture was kept on ice for 10–15 min until the foam subsided. The centrifuge was pre‐cooled to 4 °C and centrifuged at 12 000 rpm for 15 min. The supernatant was collected to obtain the protein.
For each group of 3 samples, the protein concentration was determined by the BCA Protein Assay Kit (Beyotime, Shanghai, China). A total of 100 µg of protein was aspirated from each group. Five times the volume of acetone/ethanol/formic acid (50:50:0.1, v/v) was added, and the mixture was thoroughly mixed before allowing the protein to precipitate overnight at −20 °C. […] Finally, the sample was analyzed using instrumental LC‐MS (Agilent, USA).

PANC-1 tumors = assay: PANC-1 subcutaneous xenograft antitumor activity; assay type: in vivo, BALB/c nude mice
Procedure: Five‐week‐old male BALB/c nude mice were purchased from Shanghai Jihui Laboratory Animal Breeding Co., Ltd. (Shanghai, China). After a one‐week acclimatization period, PANC‐1 cells were subcutaneously injected at a dose of 5 × 10^6 cells per mouse. Four weeks post‐injection, once tumor volumes reached 50–100 mm^3, the tumor‐bearing animals were randomly divided into four groups, each consisting of six animals. ZQJ29 was prepared in a 0.5% CMC‐Na solution, while OXA was dissolved in saline. The control group was treated with oral gavage of 0.5% CMC‐Na, while the positive control group was administered intraperitoneal injections of OXA at a dosage of 3 mg kg^−1 every three days. The test groups were treated with oral gavage of ZQJ29 at dosages of 25 and 50 mg kg day^−1. Mouse weights were monitored every other day. Tumor measurements were taken every other day using calipers, and the tumor volume was calculated using the following formula: ½ × length × width^2. Drug administered continued for three weeks. After blood collection at the end of the administration, the mice were humanely euthanized, and their vital organs were promptly harvested, preserved, and embedded in paraffin for H&E staining.

[1] = tumor tissue and proteomic analyses

Structure (SMILES): CC1CCC2C(C)C(OCCN(C#N)CCOC3OC4OC5(C)CCC6C(C)CCC(C3C)C46OO5)OC3OC4(C)CCC1C32OO4 (stereo not shown) [ZQJ29]
- cell cycle arrest (KP4 cells): remarkable G2/M phase arrest
- PARP1 protein level (proteomics) (PANC-1): prominently down‐regulated
- tumor size and weight (PANC-1 tumors; 25 or 50 mg/kg oral, vs control group): significantly reduced
- tumor growth (PANC-1 tumors; ZQJ29 25 and 50 mg/kg/day oral gavage, OXA 3 mg/kg i.p. every three days, three weeks, vs control): effectively inhibited
- expression of Ki67 and PCNA in tumor tissue (IHC) (PANC-1 tumors; after treatment, vs control): significantly reduced
- expression of PARP1, SLC7A11 and GPX4 (PANC-1 tumors; [1]): downregulated
- expression of TP53 (PANC-1 tumors; [1]): upregulated
